In patent publication US8815295B1, “Anti respiratory syncytial virus peptide functionalized gold nanoparticles” (Alabama State University, priority 2011, dated 2014):
Peptide text beside a SMILES is read from it.

Test system: human epidermoid cancer (HEp-2) cells
Assay: MTT cell viability (cytotoxicity) assay
Conditions: 24 and 48 hours, concentrations up to 50 μg/ml
Protocol: The peptides and carboxylated gold nanoparticles were tested for cytotoxic effects on human epidermoid cancer (HEp-2) cells. Cell viability was assessed by measuring cell concentration of a tetrazolium salt (3-(4,5 dimethyl-2-yl)-5-(3-carboxy-methoxyphenyl)-2-(4-sulfophenyl)-2H-tetrazolium) […]. If cells are viable the mitochondria will reduce the MTT. The cells were grown overnight in minimal essential medium (MEM) supplemented with L-glutamine, Penicillin, streptomycin, and kanamycin. 2.7×10^5 cells/well in 100 μl were seeded into 96-well plates in MEM. Cells were allowed to grow overnight in an incubator at 37° C., with a 5% CO2 humidified atmosphere, until the carboxylated gold nanoparticles were added. […] Treated cells were further incubated at 37° C., 5% CO2 for 24, and 48 hours. At the end of the corresponding incubation time, 15 μl of MTT dye was added into each well and the plates were allowed to incubate for the next 4 hours in the dark. The reaction was then stopped with 100 μl of stop solution. The absorbance of the media was measured at 570 nm on a TECAN Sunrise enzyme-linked immunosorbent assay plate reader (TECAN, US Inc., Durham, N.C., USA). Non-treated cells in growth media were used as a control.

Compound	effect on cell viability
CC[C@H](C)[C@H](NC(=O)[C@H](Cc1ccccc1)NC(=O)[C@H](C)NC(=O)[C@H](CC(C)C)NC(=O)[C@H](CO)NC(=O)[C@H](CCC(N)=O)NC(=O)[C@H](CC(N)=O)NC(=O)[C@@H](NC(=O)[C@H](CCCCN)NC(=O)[C@H](CCC(=O)O)NC(=O)[C@H](CC(N)=O)NC(=O)[C@@H](NC(=O)[C@H](CCC(N)=O)NC(=O)[C@H](CO)NC(=O)[C@@H](NC(=O)[C@@H](N)CO)[C@@H](C)CC)C(C)C)[C@@H](C)CC)C(=O)N[C@@H](CCCNC(=N)N)C(=O)N[C@@H](CCCCN)C(=O)N[C@@H](CO)C(=O)N[C@@H](CC(=O)O)C(=O)O [RF491] (H-SISQVNEKINQSLAFIRKSD-OH)	no significant effect
VFPSDEFDASISQVNEKINQSLAFIRKSDLLHNVNAGKK (respiratory syncytial virus) [RF482]	no significant effect
